Target: hERG (Homo sapiens, UniProt Q12809)
Test: Patch clamp assay (hERG tail currents, whole-cell)

hERG, sequence (Q12809 whole entry): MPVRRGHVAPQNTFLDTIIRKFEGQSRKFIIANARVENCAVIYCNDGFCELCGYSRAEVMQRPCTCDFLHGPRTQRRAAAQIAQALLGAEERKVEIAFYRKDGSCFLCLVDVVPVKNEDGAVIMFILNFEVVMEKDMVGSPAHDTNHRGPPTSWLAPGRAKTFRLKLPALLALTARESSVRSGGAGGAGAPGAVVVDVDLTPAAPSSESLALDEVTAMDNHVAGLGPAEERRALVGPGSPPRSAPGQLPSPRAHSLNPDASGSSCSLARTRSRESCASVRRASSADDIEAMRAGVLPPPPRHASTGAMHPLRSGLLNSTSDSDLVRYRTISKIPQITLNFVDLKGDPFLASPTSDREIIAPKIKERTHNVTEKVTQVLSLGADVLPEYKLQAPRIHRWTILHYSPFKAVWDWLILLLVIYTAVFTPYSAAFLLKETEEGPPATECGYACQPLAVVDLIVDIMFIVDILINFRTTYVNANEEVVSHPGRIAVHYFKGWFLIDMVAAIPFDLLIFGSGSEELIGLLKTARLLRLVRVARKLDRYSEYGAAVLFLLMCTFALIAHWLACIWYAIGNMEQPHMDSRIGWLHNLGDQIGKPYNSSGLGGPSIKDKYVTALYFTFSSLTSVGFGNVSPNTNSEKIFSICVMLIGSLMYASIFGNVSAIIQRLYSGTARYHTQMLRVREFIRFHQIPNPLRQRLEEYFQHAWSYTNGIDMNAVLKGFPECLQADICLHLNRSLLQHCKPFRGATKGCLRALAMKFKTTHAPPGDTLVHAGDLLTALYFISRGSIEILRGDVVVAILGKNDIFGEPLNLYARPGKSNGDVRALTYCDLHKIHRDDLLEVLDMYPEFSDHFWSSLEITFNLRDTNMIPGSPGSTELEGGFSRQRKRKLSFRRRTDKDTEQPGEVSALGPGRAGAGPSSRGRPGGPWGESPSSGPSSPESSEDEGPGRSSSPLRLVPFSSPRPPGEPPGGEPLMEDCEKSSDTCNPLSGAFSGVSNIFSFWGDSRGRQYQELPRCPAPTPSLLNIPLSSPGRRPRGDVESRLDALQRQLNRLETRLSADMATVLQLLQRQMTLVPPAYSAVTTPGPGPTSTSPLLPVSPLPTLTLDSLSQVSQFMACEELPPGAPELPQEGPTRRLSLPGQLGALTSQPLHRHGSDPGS

| Structure (SMILES) | hERG % Remaining (10 μM compound) | hERG % Remaining (30 μM compound) | hERG IC50 (μM) (hERG stably transfected HEK 293 cells) | hERG % Remaining (100 μM compound) |
| --- | --- | --- | --- | --- |
| CC(C)N(C(=O)c1cc(F)ccc1Oc1cncnc1N1CC2(CCN(C[C@@H]3CC[C@@H](NS(=O)(=O)N(C)C)CO3)CC2)C1)C1CC(F)(F)C1 [Example 113, N-(3,3-Difluorocyclobutyl)-2-((4-(7-(((2S,5R)-5-((N,N-dimethylsulfamoyl)amino)tetrahydro-2H-pyran-2-yl)methyl)-2,7-diazaspiro[3.5]nonan-2-yl)pyrimidin-5-yl)oxy)-5-fluoro-N-isopropylbenzamide] | +++ (≥66%) | ++ (233% and ≤66%) | – | – |
| CCN(C(=O)c1cc(F)ccc1Oc1cncnc1N1CC2(CCN(C[C@@H]3CC[C@@H](NS(=O)(=O)N4CCC4)CO3)CC2)C1)C(C)C [Example 69, 2-((4-(7-(((2S,5R)-5-(Azetidine-1-sulfonamido)tetrahydro-2H-pyran-2-yl)methyl)-2,7-diazaspiro[3.5]nonan-2-yl)pyrimidin-5-yl)oxy)-N-ethyl-5-fluoro-N-isopropylbenzamide] | +++ (≥66%) | ++ (233% and ≤66%) | – | – |
| CC(C)N(CC(F)F)C(=O)c1cc(F)ccc1Oc1cncnc1N1CC2(CCN(C[C@@H]3CC[C@@H](NS(=O)(=O)N(C)C)CO3)CC2)C1 [Example 95, N-(2,2-Difluoroethyl)-2-((4-(7-(((2S,5R)-5-((N,N-dimethylsulfamoyl)amino)tetrahydro-2H-pyran-2-yl)methyl)-2,7-diazaspiro[3.5]nonan-2-yl)pyrimidin-5-yl)oxy)-5-fluoro-N-isopropylbenzamide] | +++ (≥66%) | ++ (233% and ≤66%) | + (<25 PM) | – |
| CC(C)N(CC(F)F)C(=O)c1cc(F)ccc1Oc1cncnc1N1CC2(CCN(C[C@@H]3CC[C@@H](NS(=O)(=O)N(C)CCCO)CO3)CC2)C1 [Example 214, N-(2,2-difluoroethyl)-5-fluoro-2-((4-(7-(((2S,5R)-5-((N-(3-hydroxypropyl)-N-methylsulfamoyl)amino)tetrahydro-2H-pyran-2-yl)methyl)-2,7-diazaspiro[3.5]nonan-2-yl)pyrimidin-5-yl)oxy)-N-isopropylbenzamide] | – | +++ (≥66%) | – | – |
| CC(C)N(C(=O)c1cc(F)ccc1Oc1cncnc1N1CC2(CCN(C[C@@H]3CC[C@@H](NS(=O)(=O)N4CCC4)CO3)CC2)C1)C(C)C [Example 88, 2-((4-(7-(((2S,5R)-5-(Azetidine-1-sulfonamido)tetrahydro-2H-pyran-2-yl)methyl)-2,7-diazaspiro[3.5]nonan-2-yl)pyrimidin-5-yl)oxy)-5-fluoro-N,N-diisopropylbenzamide] | – | +++ (≥66%) | – | – |
| CC(C)N(C(=O)c1cc(F)ccc1Oc1cncnc1N1CC2(CCN(C[C@@H]3CC[C@@H](NS(=O)(=O)N4CCC4)CO3)CC2)C1)[C@H]1CCOC1 [Example 134, 2-((4-(7-(((2S,5R)-5-(Azetidine-1-sulfonamido)tetrahydro-2H-pyran-2-yl)methyl)-2,7-diazaspiro[3.5]nonan-2-yl)pyrimidin-5-yl)oxy)-5-fluoro-N-isopropyl-N-((S)-tetrahydrofuran-3-yl)benzamide] | – | +++ (≥66%) | – | – |
| CC(C)N(C(=O)c1cc(F)ccc1Oc1cncnc1N1CC2(CCN(C[C@@H]3CC[C@@H](NS(=O)(=O)N(C)C)CO3)CC2)C1)[C@@H]1CCOC1 [Example 167, 2-((4-(7-(((2S,5R)-5-((N,N-Dimethylsulfamoyl)amino)tetrahydro-2H-pyran-2-yl)methyl)-2,7-diazaspiro[3.5]nonan-2-yl)pyrimidin-5-yl)oxy)-5-fluoro-N-isopropyl-N-((R)-tetrahydrofuran-3-yl)benzamide] | – | +++ (≥66%) | – | +++ (≥66%) |
| CCNS(=O)(=O)N[C@@H]1CC[C@@H](CN2CCC3(CC2)CN(c2ncnnc2Oc2ccc(F)cc2C(=O)N(C(C)C)C(C)C)C3)OC1 [Example 198, 2-((5-(7-(((2S,5R)-5-((N-Ethylsulfamoyl)amino)tetrahydro-2H-pyran-2-yl)methyl)-2,7-diazaspiro[3.5]nonan-2-yl)-1,2,4-triazin-6-yl)oxy)-5-fluoro-N,N-diisopropylbenzamide] | – | +++ (≥66%) | – | – |
| CC(C)N(CC(F)F)C(=O)c1cc(F)ccc1Oc1cncnc1N1CC2(CCN(C[C@@H]3CC[C@@H](NS(=O)(=O)NCC4CC4)CO3)CC2)C1 [Example 148, 2-((4-(7-(((2S,5R)-5-((N-(Cyclopropylmethyl)sulfamoyl)amino)tetrahydro-2H-pyran-2-yl)methyl)-2,7-diazaspiro[3.5]nonan-2-yl)pyrimidin-5-yl)oxy)-N-(2,2-difluoroethyl)-5-fluoro-N-isopropylbenzamide] | – | +++ (≥66%) | – | – |
| CC(C)N(CC(F)F)C(=O)c1cc(F)ccc1Oc1cncnc1N1CC2(CCN(C[C@@H]3CC[C@@H](NS(=O)(=O)NC4CC4)CO3)CC2)C1 [Example 149, 2-((4-(7-(((2S,5R)-5-((N-Cyclopropylsulfamoyl)amino)tetrahydro-2H-pyran-2-yl)methyl)-2,7-diazaspiro[3.5]nonan-2-yl)pyrimidin-5-yl)oxy)-N-(2,2-difluoroethyl)-5-fluoro-N-isopropylbenzamide] | – | +++ (≥66%) | – | – |
| CC(C)N(C(=O)c1cc(F)ccc1Oc1nncnc1N1CC2(CCN(C[C@@H]3CC[C@@H](NS(=O)(=O)C4CC4)CO3)CC2)C1)C(C)C [Example 196, 2-((5-(7-(((2S,5R)-5-(Cyclopropanesulfonamido)tetrahydro-2H-pyran-2-yl)methyl)-2,7-diazaspiro[3.5]nonan-2-yl)-1,2,4-triazin-6-yl)oxy)-5-fluoro-N,N-diisopropylbenzamide] | – | +++ (≥66%) | – | – |
| CCN(C(=O)c1cc(F)ccc1Oc1cncnc1N1CC2(CCN(C[C@@H]3CC[C@@H](NS(=O)(=O)NC4CC4)CO3)CC2)C1)C(C)C [Example 142, 2-((4-(7-(((2S,5R)-5-((N-Cyclopropylsulfamoyl)amino)tetrahydro-2H-pyran-2-yl)methyl)-2,7-diazaspiro[3.5]nonan-2-yl)pyrimidin-5-yl)oxy)-N-ethyl-5-fluoro-N-isopropylbenzamide] | – | ++ (233% and ≤66%) | – | – |
| CC(C)N(C(=O)c1cc(F)ccc1Oc1cncnc1N1CC2(CCN(C[C@@H]3CC[C@@H](NS(N)(=O)=O)CO3)CC2)C1)C(C)C [Example 90, 5-Fluoro-N,N-diisopropyl-2-((4-(7-(((2S,5R)-5-(sulfamoylamino)tetrahydro-2H-pyran-2-yl)methyl)-2,7-diazaspiro[3.5]nonan-2-yl)pyrimidin-5-yl)oxy)benzamide] | +++ (≥66%) | +++ (≥66%) | – | – |
| CCN(CC)S(=O)(=O)N[C@@H]1CC[C@@H](CN2CCC3(CC2)CN(c2ncncc2Oc2ccc(F)cc2C(=O)N(C(C)C)C2CC(F)(F)C2)C3)OC1 [Example 114, 2-((4-(7-(((2S,5R)-5-((N,N-Diethylsulfamoyl)amino)tetrahydro-2H-pyran-2-yl)methyl)-2,7-diazaspiro[3.5]nonan-2-yl)pyrimidin-5-yl)oxy)-N-(3,3-difluorocyclobutyl)-5-fluoro-N-isopropylbenzamide] | + (<33%) | + (<33%) | – | – |
| Cc1nc(S(=O)(=O)N[C@@H]2CC[C@@H](CN3CCC4(CC3)CN(c3ncncc3Oc3ccc(F)cc3C(=O)N3[C@H](C)COC[C@H]3C)C4)OC2)cs1 [Example 122, N-((3R,6S)-6-((2-(5-(2-((3R,5R)-3,5-Dimethylmorpholine-4-carbonyl)-4-fluorophenoxy)pyrimidin-4-yl)-2,7-diazaspiro[3.5]nonan-7-yl)methyl)tetrahydro-2H-pyran-3-yl)-2-methylthiazole-4-sulfonamide] | – | +++ (≥66%) | – | – |
